In patent publication US20060069132A1, “Azolecarboxamide herbicides” (priority 2004, published 2006):

Key:
large crabgrass = assay: Test B pre-/postemergence herbicide test; type: in vivo, Digitaria sanguinalis; conditions: for Crabgrass, Large plant response rating (0 to 100 scale) / Plant response rating, Crabgrass, Large: preemergence; for Crabgrass, Large plant response rating: postemergence, scale 0 (no effect) to 100 (complete control)
Method in brief: (§1)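 Seeds were planted and treated preemergence with compounds formulated in a non-phytotoxic solvent mixture containing surfactant, while plants at the 1- to 4-leaf stage (2 to 18 cm) received postemergence sprays. Flooded paddy plants were grown to the 2-leaf stage. After 13 to 15 days in a greenhouse, injury was visually rated 0–100 against untreated controls.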

morningglory = assay: Test B pre-/postemergence herbicide test; type: in vivo, Ipomoea coccinea; conditions: for Morningglory plant response rating (0 to 100 scale) / Plant response rating, Morningglory: preemergence; for Morningglory plant response rating: postemergence, scale 0 (no effect) to 100 (complete control)
Method in brief: (§2)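 Species tested were Echinochloa crus-galli, Ipomoea coccinea, Xanthium strumarium and Oryza sativa, treated both before emergence and at the 1- to 4-leaf stage; rice and barnyardgrass were also tested under flooding at 2 leaves. Greenhouse incubation lasted 13–15 days before visual 0–100 scoring.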

rice = assay: Test B flooded paddy test; type: in vivo, Oryza sativa; conditions: 1000 g ai/ha, visual rating, scale 0 to 100 (0 no effect, 100 complete control), 13 to 15 days
Method in brief: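 Visual ratings, 0 (no effect) to 100 (complete control), made versus controls after 13–15 d greenhouse. Paddy plants treated at 2-leaf stage; postemergence plants at 1- to 4-leaf stage, 2–18 cm tall.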

barnyardgrass [1] = assay: Test B pre-/postemergence herbicide test; type: in vivo, Echinochloa crus-galli; conditions: for Barnyardgrass plant response rating (0 to 100 scale) / Plant response rating, Barnyardgrass: preemergence; for Barnyardgrass plant response rating: postemergence, scale 0 (no effect) to 100 (complete control)
Method in brief: as §2

ducksalad = assay: Test B flooded paddy test; type: in vivo, Heteranthera limosa; conditions: 1000 g ai/ha, visual rating, scale 0 to 100 (0 no effect, 100 complete control), 13 to 15 days
Method in brief: (§3)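 Plants grow to 1- to 4-leaf stage (2–18 cm) for postemergence spraying, or to 2-leaf stage for the paddy test. Formulated compound is applied. Greenhouse holding lasts 13–15 days. Response is scored visually relative to controls, 0 no effect to 100 complete control; a dash means no result.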

lambsquarters = assay: Test B pre-/postemergence herbicide test; type: in vivo, Chenopodium album; conditions: for Lambsquarters plant response rating (0 to 100 scale) / Plant response rating, Lambsquarters: preemergence; for Lambsquarters plant response rating: postemergence, scale 0 (no effect) to 100 (complete control)
Method in brief: as §1

blackgrass = assay: Test B postemergence herbicide test; type: in vivo, Alopecurus myosuroides; conditions: postemergence, visual rating, scale 0 (no effect) to 100 (complete control)
Method in brief: as §3

barnyardgrass [2] = assay: Test B flooded paddy test; type: in vivo, Echinochloa crus-galli; conditions: 1000 g ai/ha, visual rating, scale 0 to 100 (0 no effect, 100 complete control), 13 to 15 days
Method in brief: as §3

Surinam grass = assay: Test B pre-/postemergence herbicide test; type: in vivo, Urochloa decumbens; conditions: for Surinam Grass plant response rating (0 to 100 scale) / Plant response rating, Surinam Grass: preemergence; for Surinam Grass plant response rating: postemergence, scale 0 (no effect) to 100 (complete control)
Method in brief: as §1

wild oat = assay: Test B postemergence herbicide test; type: in vivo, Avena fatua; conditions: postemergence, visual rating, scale 0 (no effect) to 100 (complete control)
Method in brief: as §3

[3] = test system: small flower umbrella sedge; assay: Test B flooded paddy test; type: in vivo, Cyperus difformis; conditions: 1000 g ai/ha, visual rating, scale 0 to 100 (0 no effect, 100 complete control), 13 to 15 days
Method in brief: as §3

giant foxtail = assay: Test B pre-/postemergence herbicide test; type: in vivo, Setaria faberi; conditions: for Foxtail, Giant plant response rating (0 to 100 scale) / Plant response rating, Foxtail, Giant: preemergence; for Foxtail, Giant plant response rating: postemergence, scale 0 (no effect) to 100 (complete control)
Method in brief: as §1

corn = assay: Test B pre-/postemergence herbicide test; type: in vivo, Zea mays; conditions: for Corn plant response rating (0 to 100 scale) / Plant response rating, Corn: preemergence; for Corn plant response rating: postemergence, scale 0 (no effect) to 100 (complete control)
Method in brief: as §1

cocklebur = assay: Test B pre-/postemergence herbicide test; type: in vivo, Xanthium strumarium; conditions: for Cocklebur plant response rating (0 to 100 scale) / Plant response rating, Cocklebur: preemergence; for Cocklebur plant response rating: postemergence, scale 0 (no effect) to 100 (complete control)
Method in brief: as §2

wheat = assay: Test B postemergence herbicide test; type: in vivo, Triticum aestivum; design: key to Wheat plant response rating: 0 = no effect, 100 = complete control; conditions: postemergence, visual rating, scale 0 (no effect) to 100 (complete control)
Method in brief: as §3

pigweed = assay: Test B pre-/postemergence herbicide test; type: in vivo, Amaranthus retroflexus; conditions: for Pigweed plant response rating (0 to 100 scale) / Plant response rating, Pigweed: preemergence; for Pigweed plant response rating: postemergence, scale 0 (no effect) to 100 (complete control)
Method in brief: as §1

[4] = 125 g ai/ha, 0 = no effect, 100 = complete control
[5] = 500 g ai/ha, visual rating 0-100, 0 no effect, 100 complete control
[6] = 500 g ai/ha, visual rating, 0 = no effect, 100 = complete control

C=CCNC(=O)c1cccc(NC(=O)c2sc(C(C)(C)C)nc2CC)c1 [Compound 207]
70: Crabgrass, Large plant response rating (0 to 100 scale) (large crabgrass; [4])
50: Lambsquarters plant response rating (lambsquarters; 125 g ai/ha, visual rating) | Foxtail, Giant plant response rating (0 to 100 scale) (giant foxtail; [4]) | Plant response rating, Corn (corn; [5])
60: Rice plant response rating (rice) | Plant response rating, Surinam Grass (Surinam grass; [5]) | Pigweed plant response rating (pigweed; 500 g ai/ha, visual rating)
20: Crabgrass, Large plant response rating (large crabgrass; 125 g ai/ha, visual rating) | Crabgrass, Large plant response rating (large crabgrass; 500 g ai/ha, visual rating) | Morningglory plant response rating (0 to 100 scale) (morningglory; [4]) | Morningglory plant response rating (morningglory; 500 g ai/ha, visual rating) | Barnyardgrass plant response rating (barnyardgrass [1]; 125 g ai/ha, visual rating) | Barnyardgrass plant response rating (barnyardgrass [1]; 500 g ai/ha, visual rating) | Surinam Grass plant response rating (Surinam grass; 125 g ai/ha, visual rating) | Surinam Grass plant response rating (Surinam grass; 500 g ai/ha, visual rating) | Oat, Wild plant response rating (wild oat; 125 g ai/ha) | Oat, Wild plant response rating (wild oat; 500 g ai/ha) | Foxtail, Giant plant response rating (giant foxtail; 125 g ai/ha, visual rating) | Foxtail, Giant plant response rating (giant foxtail; 500 g ai/ha, visual rating) | Corn plant response rating (corn; 125 g ai/ha, visual rating) | Corn plant response rating (corn; 500 g ai/ha, visual rating) | Plant response rating, Cocklebur (cocklebur; [5]) | Wheat plant response rating (wheat; 125 g ai/ha) | Wheat plant response rating (wheat; 500 g ai/ha)
80: Barnyardgrass plant response rating (0 to 100 scale) (barnyardgrass [1]; [4]) | Lambsquarters plant response rating (0 to 100 scale) (lambsquarters; [4]) | Lambsquarters plant response rating (lambsquarters; 500 g ai/ha, visual rating) | Barnyardgrass plant response rating (barnyardgrass [2]) | Sedge, Umbrella plant response rating [3] | Cocklebur plant response rating (cocklebur; 500 g ai/ha, visual rating)
10: Morningglory plant response rating (morningglory; 125 g ai/ha, visual rating) | Blackgrass plant response rating (blackgrass; 500 g ai/ha) | Corn plant response rating (0 to 100 scale) (corn; [4]) | Cocklebur plant response rating (0 to 100 scale) (cocklebur; [4])
0: Blackgrass plant response rating (blackgrass; 125 g ai/ha)
30: Pigweed plant response rating (pigweed; 125 g ai/ha, visual rating)
90: Plant response rating, Barnyardgrass (barnyardgrass [1]; [5]) | Ducksalad plant response rating (ducksalad) | Plant response rating, Foxtail, Giant (giant foxtail; [5]) | Pigweed plant response rating (0 to 100 scale) (pigweed; [4])
40: Plant response rating, Morningglory (morningglory; [5]) | Surinam Grass plant response rating (0 to 100 scale) (Surinam grass; [4]) | Cocklebur plant response rating (cocklebur; 125 g ai/ha, visual rating)
100: Plant response rating, Crabgrass, Large (large crabgrass; [5]) | Plant response rating, Lambsquarters (lambsquarters; [5]) | Plant response rating, Pigweed (pigweed; [5])

CCNC(=O)c1cccc(NC(=O)c2sc(C(C)(C)C)nc2CC)c1 [Compound 210]
40: Barnyardgrass plant response rating (barnyardgrass [1]; 500 g ai/ha, visual rating) | Plant response rating, Cocklebur (cocklebur; [5]) | Pigweed plant response rating (pigweed; 125 g ai/ha, visual rating)
70: Morningglory plant response rating (morningglory; 500 g ai/ha, visual rating) | Rice plant response rating (rice) | Barnyardgrass plant response rating (0 to 100 scale) (barnyardgrass [1]; [4]) | Lambsquarters plant response rating (lambsquarters; 125 g ai/ha, visual rating) | Plant response rating, Surinam Grass (Surinam grass; [5]) | Plant response rating, Corn (corn; [5]) | Pigweed plant response rating (pigweed; 500 g ai/ha, visual rating)
20: Crabgrass, Large plant response rating (large crabgrass; 125 g ai/ha, visual rating) | Crabgrass, Large plant response rating (large crabgrass; 500 g ai/ha, visual rating) | Morningglory plant response rating (0 to 100 scale) (morningglory; [4]) | Barnyardgrass plant response rating (barnyardgrass [1]; 125 g ai/ha, visual rating) | Surinam Grass plant response rating (Surinam grass; 125 g ai/ha, visual rating) | Oat, Wild plant response rating (wild oat; 125 g ai/ha) | Oat, Wild plant response rating (wild oat; 500 g ai/ha) | Foxtail, Giant plant response rating (giant foxtail; 125 g ai/ha, visual rating) | Corn plant response rating (0 to 100 scale) (corn; [4]) | Corn plant response rating (corn; 125 g ai/ha, visual rating) | Wheat plant response rating (wheat; 125 g ai/ha) | Wheat plant response rating (wheat; 500 g ai/ha)
100: Lambsquarters plant response rating (0 to 100 scale) (lambsquarters; [4]) | Plant response rating, Lambsquarters (lambsquarters; [5]) | Plant response rating, Foxtail, Giant (giant foxtail; [5]) | Pigweed plant response rating (0 to 100 scale) (pigweed; [4]) | Plant response rating, Pigweed (pigweed; [5])
90: Crabgrass, Large plant response rating (0 to 100 scale) (large crabgrass; [4]) | Plant response rating, Crabgrass, Large (large crabgrass; [5]) | Plant response rating, Barnyardgrass (barnyardgrass [1]; [5]) | Cocklebur plant response rating (cocklebur; 500 g ai/ha, visual rating)
10: Blackgrass plant response rating (blackgrass; 125 g ai/ha) | Cocklebur plant response rating (0 to 100 scale) (cocklebur; [4])
60: Surinam Grass plant response rating (0 to 100 scale) (Surinam grass; [4]) | Corn plant response rating (corn; 500 g ai/ha, visual rating) | Cocklebur plant response rating (cocklebur; 125 g ai/ha, visual rating)
80: Ducksalad plant response rating (ducksalad) | Lambsquarters plant response rating (lambsquarters; 500 g ai/ha, visual rating) | Barnyardgrass plant response rating (barnyardgrass [2]) | Sedge, Umbrella plant response rating [3] | Foxtail, Giant plant response rating (0 to 100 scale) (giant foxtail; [4])
30: Plant response rating, Morningglory (morningglory; [5]) | Morningglory plant response rating (morningglory; 125 g ai/ha, visual rating) | Blackgrass plant response rating (blackgrass; 500 g ai/ha) | Surinam Grass plant response rating (Surinam grass; 500 g ai/ha, visual rating) | Foxtail, Giant plant response rating (giant foxtail; 500 g ai/ha, visual rating)

CCNC(=O)c1cccc(NC(=O)c2sc(C(C)(C)C)nc2CC)n1 [Compound 213]
80: Plant response rating, Barnyardgrass (barnyardgrass [1]; [6]) | Sedge, Umbrella plant response rating [3]
30: Crabgrass, Large plant response rating (large crabgrass; 500 g ai/ha, visual rating) | Morningglory plant response rating (morningglory; 500 g ai/ha, visual rating) | Lambsquarters plant response rating (0 to 100 scale) (lambsquarters; [4]) | Foxtail, Giant plant response rating (giant foxtail; 500 g ai/ha, visual rating) | Wheat plant response rating (wheat; 500 g ai/ha) | Pigweed plant response rating (0 to 100 scale) (pigweed; [4])
70: Plant response rating, Crabgrass, Large (large crabgrass; [6]) | Ducksalad plant response rating (ducksalad) | Cocklebur plant response rating (cocklebur; 500 g ai/ha, visual rating)
60: Barnyardgrass plant response rating (barnyardgrass [2])
100: Plant response rating, Lambsquarters (lambsquarters; [6]) | Plant response rating, Pigweed (pigweed; [6])
90: Plant response rating, Foxtail, Giant (giant foxtail; [6])
50: Barnyardgrass plant response rating (barnyardgrass [1]; 500 g ai/ha, visual rating)
40: Rice plant response rating (rice) | Lambsquarters plant response rating (lambsquarters; 500 g ai/ha, visual rating) | Blackgrass plant response rating (blackgrass; 500 g ai/ha) | Plant response rating, Surinam Grass (Surinam grass; [6])
10: Crabgrass, Large plant response rating (0 to 100 scale) (large crabgrass; [4]) | Morningglory plant response rating (morningglory; 125 g ai/ha, visual rating) | Barnyardgrass plant response rating (0 to 100 scale) (barnyardgrass [1]; [4]) | Surinam Grass plant response rating (Surinam grass; 125 g ai/ha, visual rating) | Oat, Wild plant response rating (wild oat; 125 g ai/ha) | Plant response rating, Corn (corn; [6])
20: Plant response rating, Morningglory (morningglory; [6]) | Blackgrass plant response rating (blackgrass; 125 g ai/ha) | Surinam Grass plant response rating (Surinam grass; 500 g ai/ha, visual rating) | Oat, Wild plant response rating (wild oat; 500 g ai/ha) | Foxtail, Giant plant response rating (0 to 100 scale) (giant foxtail; [4]) | Corn plant response rating (corn; 500 g ai/ha, visual rating) | Pigweed plant response rating (pigweed; 500 g ai/ha, visual rating)
0: Crabgrass, Large plant response rating (large crabgrass; 125 g ai/ha, visual rating) | Morningglory plant response rating (0 to 100 scale) (morningglory; [4]) | Barnyardgrass plant response rating (barnyardgrass [1]; 125 g ai/ha, visual rating) | Lambsquarters plant response rating (lambsquarters; 125 g ai/ha, visual rating) | Surinam Grass plant response rating (0 to 100 scale) (Surinam grass; [4]) | Foxtail, Giant plant response rating (giant foxtail; 125 g ai/ha, visual rating) | Corn plant response rating (0 to 100 scale) (corn; [4]) | Corn plant response rating (corn; 125 g ai/ha, visual rating) | Cocklebur plant response rating (0 to 100 scale) (cocklebur; [4]) | Plant response rating, Cocklebur (cocklebur; [6]) | Cocklebur plant response rating (cocklebur; 125 g ai/ha, visual rating) | Wheat plant response rating (wheat; 125 g ai/ha) | Pigweed plant response rating (pigweed; 125 g ai/ha, visual rating)
